From ChEMBL document CHEMBL5625206, “Design, synthesis, and evaluation of novel pleuromutilin aryl acrylate derivatives as promising broad-spectrum antibiotics especially for combatting multi-drug resistant gram-negative bacteria” (Eur J Med Chem, 2023)
Values after ≈ are worked out from the molar mass of the structure shown. Active and inactive are the calls of the source. The calls are words filed in the database; no cut-off is given here.

Tests used:
[1] = Toxicity in fasted male Sprague-Dawley rat assessed as relative kidney weight ratio at 224 mg/kg, IG measured for 14 days (reference value: 0.820 +/- 0.072); format: organism-based; details: in vivo, po, 336 h, time 14 day
[2] = Toxicity in fasted Sprague-Dawley rat assessed as mortality rate at 100 mg/kg, IG measured for 14 days; format: organism-based; details: in vivo, po, time 14 day
Staphylococcus aureus [3] = assay: Antibacterial activity against methicillin-resistant Staphylococcus aureus ATCC 33591 infected in neutropenic Kunming mouse model assessed as reduction in infection-induced lung damage at 20 mg/kg, ip measured after 7 days; format: functional, organism-based; details: time 7.0 day
Escherichia coli = assay: Disruption of cell membrane integrity in Escherichia coli ATCC 25922 assessed as rough cell surface at MIC incubated for 4 hrs by FESEM analysis; format: functional, organism-based
[4] = Toxicity in fasted male Sprague-Dawley rat assessed as body weight at 100 mg/kg, IG measured on same day (reference value: 212.7 +/- 13.2 g); format: organism-based; details: in vivo, po
[5] = Toxicity in fasted male Sprague-Dawley rat assessed as relative liver weight ratio at 500 mg/kg, IG measured for 14 days (reference value: 3.616 +/- 0.286); format: organism-based; details: in vivo, po, 336 h, time 14 day
[6] = Toxicity in fasted female Sprague-Dawley rat assessed as relative kidney weight ratio at 100 mg/kg, IG measured for 14 days (reference value: 0.802 +/- 0.031); format: organism-based; details: in vivo, po, 336 h, time 14 day
Staphylococcus aureus [7] = assay: Antibacterial activity against methicillin-resistant Staphylococcus aureus ATCC 33591 infected in neutropenic Kunming mouse model assessed as bacterial load reduction in lung at 10 to 20 mg/kg, ip measured after 2 days; format: functional, organism-based; details: dose 10-20 mg/kg, time 2.0 day
[8] = Toxicity in fasted female Sprague-Dawley rat assessed as body weight at 224 mg/kg, IG measured after 14 days (reference value: 214.3 +/- 9.8 g); format: organism-based; details: in vivo, po, 336 h, time 14 day
[9] = Toxicity in fasted male Sprague-Dawley rat assessed as relative testis weight ratio at 100 mg/kg, IG measured for 14 days (reference value: 0.993 +/- 0.052); format: organism-based; details: in vivo, po, 336 h, time 14 day
[10] = Toxicity in fasted male Sprague-Dawley rat assessed as relative lung weight ratio at 331 mg/kg, IG measured for 14 days (reference value: 0.437 +/- 0.064); format: organism-based; details: in vivo, po, 336 h, time 14 day
Staphylococcus aureus [11] = assay: Antibacterial activity against Staphylococcus aureus ATCC 25923 assessed as bacterial growth inhibition incubated for 24 hrs by CLSI based broth microdilution method; format: functional
Staphylococcus aureus [12] = assay: Antibacterial activity against methicillin-resistant Staphylococcus aureus ATCC 33591 infected in neutropenic Kunming mouse model assessed as reduction in infection-induced liver damage at 20 mg/kg, ip measured after 7 days; format: functional, organism-based; details: time 7.0 day

C=C[C@]1(C)C[C@@H](OC(=O)COC(=O)/C=C/c2ccc(N(C)C)cc2)[C@]2(C)[C@H](C)CC[C@]3(CCC(=O)[C@H]32)[C@@H](C)[C@@H]1O
Ratio [1]: 0.808 | mortality at 336 h [2]: 0% | Activity (Staphylococcus aureus [3]): Active | Activity (Escherichia coli): Active | Activity [4]: 215.3 g | Ratio [5]: 3.551 | Ratio [6]: 0.81 | Activity (Staphylococcus aureus [7]): Active | Activity [8]: 217.4 g | Ratio [9]: 1.048 | Ratio [10]: 0.397 | MIC (Staphylococcus aureus [11]): 1 µg/mL (≈ 1.81 µM) | Activity (Staphylococcus aureus [12]): Active
